In patent US12522587B2, “Cancer treatments targeting cancer stem cells” (Remedy Plan, Inc., priority 2018, dated 2026):

test system: AGS cells; test: Cell viability in AGS cells (CellTiter Glo2, 8-point dose response, 4 days); assay type: cell-based, human; details: not given
Method: AGS cells were treated with DMSO (no drug control) or each compound in Table 5 in an 8-point dose response for 4 days. Cell viability was measured using CellTiter Glo2. The IC50 of each compound was determined using CDD Vault.

SMILES | IC50 [µM]
CCC(=O)N1CCc2cc(-c3ccc(C(=O)NCc4cccnc4)cc3C)ccc21 [Compound I-91, 3-methyl-4-(1-propionylindolin-5-yl)-N-(pyridin-3-ylmethyl)benzamide] | 2.59
CCC(=O)N1CCc2cc(-c3ccc(C(=O)NCc4cccnc4)cc3OC)ccc21 [Compound I-94, 3-methoxy-4-(1-propionylindolin-5-yl)-N-(pyridin-3-ylmethyl)benzamide] | 8.71
CCC(=O)N1CCc2cc(-c3ccc(C(=O)NCc4ccccn4)cc3)ccc21 [Compound I-185, 4-(1-propionylindolin-5-yl)-N-(pyridin-2-ylmethyl)benzamide] | 21
CCC(=O)N1CCc2cc(-c3nc(C(=O)NCc4cccnc4)c[nH]3)ccc21 [Compound I-208, 2-(1-propionylindolin-5-yl)-N-(pyridin-3-ylmethyl)-1H-imidazole-4-carboxamide] | 15.1

same assay, conditions: Homo sapiens, 96 h

SMILES | IC50 [µM]
CCC(=O)N1CCc2cc(-c3ccc(C(=O)N(C)Cc4cccnc4)cc3)ccc21 [Compound I-62, N-methyl-4-(1-propionylindolin-5-yl)-N-(pyridin-3-ylmethyl)benzamide] | 29.3

same assay, conditions: Homo sapiens, AGS, 96 h

SMILES | IC50 [µM]
CCC(=O)N1CCc2cc(-c3ccc(C(=O)NCc4cccnc4C)cc3)ccc21 [Compound I-61, N-((2-methylpyridin-3-yl)methyl)-4-(1-propionylindolin-5-yl)benzamide] | > 30
CCC(=O)N1CCc2cc(-c3ccc(C(=O)NCC4CCCNC4)cc3)ccc21 (stereo not drawn) [Compound I-63, N-(piperidin-3-ylmethyl)-4-(1-propionylindolin-5-yl)benzamide] | > 30
CCC(=O)N1CCc2cc(-c3cnc(C(=O)NCc4cccnc4)nc3)ccc21 [Compound I-65, 5-(1-propionylindolin-5-yl)-N-(pyridin-3-ylmethyl) pyrimidine-2-carboxamide] | 7.27
CCC(=O)N1CCc2cc(-c3ncc(C(=O)NCc4cccnc4)cn3)ccc21 [Compound I-66, 2-(1-propionylindolin-5-yl)-N-(pyridin-3-ylmethyl) pyrimidine-5-carboxamide] | > 30
CC(C)(O)C(=O)N1CCc2cc(-c3ccc(C(=O)NCc4cccnc4)cc3)ccc21 [Compound I-68, 4-(1-(2-hydroxy-2-methylpropanoyl)indolin-5-yl)-N-(pyridin-3-ylmethyl)benzamide] | 29.7
CCC(=O)N1CCc2cc(-c3ccc(C(=O)NCC4CCNCC4)cc3)ccc21 [Compound I-70, N-(piperidin-4-ylmethyl)-4-(1-propionylindolin-5-yl)benzamide] | > 30
CCC(=O)N1CCc2nc(-c3ccc(C(=O)NCc4cccnc4)cc3)ccc21 [Compound I-71, 4-(1-propionyl-2,3-dihydro-1H-pyrrolo[3,2-b]pyridin-5-yl)-N-(pyridin-3-ylmethyl)benzamide] | 4.35
CCC(=O)N1CCc2cc(-c3ccc(C(=O)NCc4cn[nH]c4)cc3)ccc21 [Compound I-72, N-((1H-pyrazol-4-yl)methyl)-4-(1-propionylindolin-5-yl)benzamide] | > 30
CCC(=O)N1CCc2cc(-c3ccc(C(=O)NCc4cnco4)cc3)ccc21 [Compound I-73, N-(oxazol-5-ylmethyl)-4-(1-propionylindolin-5-yl)benzamide] | > 30
CCC(=O)N1CCc2cc(-c3ccc(C(=O)Nc4cccnc4)cc3)ccc21 [Compound I-74] | 6.61
CN1CCc2cc(-c3ccc(C(=O)NCc4cccnc4)cc3)ccc21 [Compound I-75, 4-(1-methylindolin-5-yl)-N-(pyridin-3-ylmethyl)benzamide] | > 20.6
CCC(=O)n1ccc2cc(-c3ccc(C(=O)NCc4cccnc4)cc3)ccc21 [Compound I-90, 4-(1-propionyl-1H-indol-5-yl)-N-(pyridin-3-ylmethyl)benzamide] | > 13.3
CCC(=O)N1CCc2cc(-c3ccc(C(=O)NCc4cccnc4)cc3C)ccc21 [Compound I-91, 3-methyl-4-(1-propionylindolin-5-yl)-N-(pyridin-3-ylmethyl)benzamide] | 2.03
CCC(=O)N1CCc2cc(-c3ccc(C(=O)NCc4cccnc4)cc3OC)ccc21 [Compound I-94, 3-methoxy-4-(1-propionylindolin-5-yl)-N-(pyridin-3-ylmethyl)benzamide] | 7.86
CCC(=O)N1CCc2cc(-c3ccc(NC(=O)Cc4cccnc4)cc3)ccc21 [Compound I-95] | > 30
CCC(=O)N1CCc2cc(-c3ccc(C(=O)NCc4cccnc4)c(OC)c3)ccc21 [Compound I-96, 2-methoxy-4-(1-propionylindolin-5-yl)-N-(pyridin-3-ylmethyl)benzamide] | > 30
CCC(=O)N1CCc2cc(-c3ccc(C(=O)NCc4cccnc4)cc3F)ccc21 [Compound I-97, 3-fluoro-4-(1-propionylindolin-5-yl)-N-(pyridin-3-ylmethyl) benzamide] | 3.17
CCC(=O)N1CCc2cc(-c3ccc(C(=O)NCc4ccccc4)cc3)ccc21 [Compound I-152] | > 30
CCC(=O)N1CCc2cc(-c3ccc(C(=O)NCc4ccc(OC)cc4)cc3)ccc21 [Compound I-156] | > 30
CCC(=O)N1CCc2cc(-c3ccc(C(=O)NCc4ccc(C)cc4)cc3)ccc21 [Compound I-157] | > 30
CCC(=O)N1CCc2cc(-c3ccc(C(=O)NC(C)c4ccccc4)cc3)ccc21 (stereo not drawn) [Compound I-160] | > 30
CCC(=O)N1CCc2cc(-c3ccc(C(=O)NCc4cccc(Cl)c4)cc3)ccc21 [Compound I-168] | > 30
CCC(=O)N1CCc2cc(-c3ccc(C(=O)NCc4cccc(OC)c4)cc3)ccc21 [Compound I-171] | > 30
CCC(=O)N1CCc2cc(-c3ccc(C(=O)NCc4cccc(F)c4)cc3)ccc21 [Compound I-174] | > 30
CC(=O)N1CCc2cc(-c3ccc(C(=O)NCc4ccccn4)cc3)ccc21 [Compound I-175] | 5.14
CCC(=O)N1CCc2cc(-c3ccc(C(=O)NCc4ccc(Cl)cc4)cc3)ccc21 [Compound I-176] | 25.8
CCC(=O)N1CCc2cc(-c3ccc(C(=O)NCC4CCCO4)cc3)ccc21 (stereo not drawn) [Compound I-178] | > 30
CCC(=O)N1CCc2cc(-c3ccc(C(=O)NCc4ccc(F)cc4)cc3)ccc21 [Compound I-179] | > 30

SMILES | IC50 [µM]
CCOc1ccc(CNC(=O)c2ccc(-c3ccc4c(c3)CCN4C(=O)CC)cc2)cc1 [Compound I-180] | > 30
CCC(=O)N1CCc2cc(-c3ccc(C(=O)NCc4ccco4)cc3)ccc21 [Compound I-181] | > 30
CCC(=O)N1CCc2cc(-c3ccc(C(=O)NCc4ccccn4)cc3)ccc21 [Compound I-185, 4-(1-propionylindolin-5-yl)-N-(pyridin-2-ylmethyl)benzamide] | 15.5
CCC(=O)N1CCc2cc(-c3ccc(C(=O)NCC4CCCCC4)cc3)ccc21 [Compound I-186, N-(cyclohexylmethyl)-4-(1-propionylindolin-5-yl)benzamide] | > 30
CCC(=O)N1CCc2cc(-c3ccc(C(=O)NCc4cnccc4C)cc3)ccc21 [Compound I-188, N-((4-methylpyridin-3-yl)methyl)-4-(1-propionylindolin-5-yl)benzamide] | > 30
CCC(=O)N1CCc2cc(-c3ccc(C(=O)NCC4CCOCC4)cc3)ccc21 [Compound I-191, 4-(1-propionylindolin-5-yl)-N-((tetrahydro-2H-pyran-4-yl)methyl)benzamide] | > 30
CCC(=O)N1CCc2cc(-c3ccc(C(=O)NCC4CN(C(=O)OC(C)(C)C)C4)cc3)ccc21 [Compound I-196] | > 30
CCC(=O)N1CCc2cc(-c3ccc(C(=O)NCc4cccnn4)cc3)ccc21 [Compound I-197, 4-(1-propionylindolin-5-yl)-N-(pyridazin-3-ylmethyl)benzamide] | 25.2
CCC(=O)N1CCc2cc(-c3ccc(C(=O)NCc4cncc(C)c4)cc3)ccc21 [Compound I-198, N-((5-methylpyridin-3-yl)methyl)-4-(1-propionylindolin-5-yl)benzamide] | 1.06
CCC(=O)N1CCc2cc(-c3ccc(C(=O)NCC4CNC4)cc3)ccc21 [Compound I-200, N-(azetidin-3-ylmethyl)-4-(1-propionylindolin-5-yl)benzamide] | > 30
CCC(=O)N1CCc2cc(-c3ccc(C(=O)NCc4ccncn4)cc3)ccc21 [Compound I-204, 4-(1-propionylindolin-5-yl)-N-(pyrimidin-4-ylmethyl)benzamide] | > 30
CCC(=O)N1CCc2cc(-c3ccc(C(=O)NCC4CCCC4)cc3)ccc21 [Compound I-207] | > 100
CCC(=O)N1CCc2cc(-c3nc(C(=O)NCc4cccnc4)c[nH]3)ccc21 [Compound I-208, 2-(1-propionylindolin-5-yl)-N-(pyridin-3-ylmethyl)-1H-imidazole-4-carboxamide] | > 30
CCC(=O)N1CCc2cc(N3CC(C(=O)NCc4cccnc4)C3)ccc21 [Compound I-209, 1-(1-propionylindolin-5-yl)-N-(pyridin-3-ylmethyl)azetidine-3-carboxamide] | > 30
CCC(=O)N1CCc2cc(-c3ccc(C(=O)NCc4cccnc4)c(O)c3)ccc21 [Compound I-210] | 3.02
CCC(=O)N1CCc2cc(-c3ccc(C(=O)NCc4cccnc4)cc3)c(F)cc21 [Compound I-211] | 1.16
CCC(=O)N1CCc2cc(-c3ccc(C(=O)NCc4cccnc4)cc3)c(Cl)cc21 [Compound I-212] | 1.35
CCC(=O)N1CCc2c1ccc(-c1ccc(C(=O)NCc3cccnc3)cc1)c2F [Compound I-213] | 3.48
CCC(=O)N1CCc2c1ccc(-c1ccc(C(=O)NCc3cccnc3)cc1)c2Cl [Compound I-214] | 0.96
CCC(=O)N(C)c1ccc(-c2ccc(C(=O)NCc3cccnc3)cc2)cc1C [Compound I-215, 3′-methyl-4′-(N-methylpropionamido)-N-(pyridin-3-ylmethyl)-[1,1′-biphenyl]-4-carboxamide] | 1.82
CC(=O)N(C)c1ccc(-c2ccc(C(=O)NCc3cccnc3)cc2)cc1C [Compound I-216] | 2.44
CCC(=O)N(C)c1ccc(-c2ccc(C(=O)NCc3cccnc3)cc2)c(C)c1 [Compound I-217] | 1.85
O=C(NCc1cccnc1)c1ccc(-c2ccc3c(c2)CCN3C(=O)C2CC2)cc1 [Compound I-220] | 2.94
CCC(=O)N(C)c1ccc(-c2ccc(C(=O)NCc3ccc(C)nc3C)cc2)cc1 [Compound I-221] | 0.607
CCC(=O)N1CCc2cc(N3CCN(C(=O)NCc4cccnc4)CC3)ccc21 [Compound I-223] | 4.54
CCC(=O)N(C)c1ccc(-c2ccc(S(=O)(=O)NCc3cccnc3)cc2)cc1 [Compound I-226] | 9.76
CCC(=O)N(C)c1ccc(-c2ccc(C(=O)NCc3cccnc3)nc2)cc1C [Compound I-227, 5-(3-methyl-4-(N-methylpropionamido)phenyl)-N-(pyridin-3-ylmethyl)picolinamide] | 5.22
